In patent EP1992346A1, “PHARMACEUTICAL COMPOSITIONS CONTAINING COMBINED PLATELET AGGREGATION INHIBITING SUBSTANCES FOR USE IN THE TREATMENT AND PREVENTION OF ISCHEMIC VASCULAR EVENTS” (WORLD-TRADE IMPORT-EXPORT, WTIE, A.G., priority 2005, dated 2007):

Experiments:
[1] = cited from earlier work
[2] = test system: U46619-induced platelet aggregation; settings: double blind, 10-day study, 20 healthy volunteers; plasma rich in platelets
Procedure: It was a double blind, 10-day duration study that was performed in 20 healthy volunteers with an age ranging from 26 to 40 years old. The platelet activation was measured by changes in light transmission of plasma rich in platelets stimulated by a synthetic analogue of TXA2, U46619.

platelet aggregation = settings: cited from earlier work
[3] = cited from earlier work; remark: listed apart in the source
[4] = radioactively marked Clopidogrel, within a five-day period

For `COC(=O)[C@H](c1ccccc1Cl)N1CCc2sccc2C1` [Clopidogrel], the “reversibly bound to plasmatic proteins” value [1] is listed as 98%, the “U46619 stimulated platelet aggregation” value [2] is listed as “significantly inhibited” and the “time for platelet aggregation and bleeding-time to return to basal level” value (platelet aggregation; after the treatment discontinuation) is listed as “five”. For the same compound, the platelet aggregation inhibited (platelet aggregation; in balanced conditions, 75 mg per day) was 40-60%, the activity in vitro (platelet aggregation; in vitro, requires hepatic activation) was “inactive in vitro” and the “time to maximum inhibition of platelet aggregation” value (platelet aggregation; iterative doses of 75 mg per day) was 3 to 7 days. The “inhibition of platelet aggregation” value (platelet aggregation; two hours after a single oral dose) was “already observed an inhibition of platelet aggregation”, the “time to maximum plasmatic concentrations of primary metabolite” value ([3]; after a dose of 75 mg) was “one” and the plasmatic half-life ([3]; in vivo) was “about 8 hours”. For the same compound, the “inactive primary metabolite (carboxylic acid) as share of metabolites circulating in the plasma” value ([3]; oral) was “about 85%”, the absorption ([3]; oral, not significantly affected by food) was 50% and the eliminated through feces [3, 4] was 46%. For the same compound, the eliminated through urine [3, 4] was “About 50%” and the “plasmatic concentrations of the unaltered drug” value ([3]; two hours after an oral dose) was “no longer detectable”.
